# From ChEMBL document CHEMBL3885881, “DrugMatrix”
# Organism: Rattus norvegicus
# Test: DrugMatrix - Regimen: Daily Repeat
# Type: toxicity, organism-based, Sprague-Dawley
# Set-up: regimen Daily Repeat, gender Male, age 6-8 weeks
# Conditions: in vivo, po, route oral GAVAGE, vehicle .5 % CMC; for ABSOLUTE BASOPHIL / ABSOLUTE EOSINOPHIL / ABSOLUTE LYMPHOCYTE / ABSOLUTE MONOCYTE / ABSOLUTE SEGMENTED NEUTROPHIL / BASOPHIL / EOSINOPHIL / ERYTHROCYTE COUNT / HEMATOCRIT / HEMOGLOBIN / LEUKOCYTE COUNT / LYMPHOCYTE / MEAN CORPUSCULAR HEMOGLOBIN / MEAN CORPUSCULAR HEMOGLOBIN CONCENTRATION / MEAN CORPUSCULAR VOLUME / MONOCYTE / NEUTROPHIL / NUCLEATED RED BLOOD CELLS / PLATELET COUNT: tissue Blood; for ALANINE AMINOTRANSFERASE / ALBUMIN / ALKALINE PHOSPHATASE / ASPARTATE AMINOTRANSFERASE / BLOOD UREA NITROGEN / CARBON DIOXIDE / CHLORIDE / CHOLESTEROL / CREATINE PHOSPHOKINASE / CREATININE / GLUCOSE / LACTATE DEHYDROGENASE / LIPASE / PHOSPHORUS / POTASSIUM / SODIUM / TOTAL BILIRUBIN / TOTAL PROTEIN / URIC ACID: tissue Plasma
# [1] = 0 mg/kg, 72 h, dose level Control, time 3 day
# [2] = 0 mg/kg, 120 h, dose level Control, time 5 day
# [3] = 75 mg/kg, 72 h, dose level High, time 3 day
smiles,measurement,setting,value
Cc1ccc(/N=C/N(C)/C=N/c2ccc(C)cc2C)c(C)c1 [AMITRAZ],ABSOLUTE BASOPHIL,[1],0 CELLS/uL
same,ABSOLUTE EOSINOPHIL,[1],0 CELLS/uL
same,ABSOLUTE LYMPHOCYTE,[1],12269.67 CELLS/uL
same,ABSOLUTE MONOCYTE,[1],160.33 CELLS/uL
same,ABSOLUTE SEGMENTED NEUTROPHIL,[1],970 CELLS/uL
same,BASOPHIL,[1],0%
same,EOSINOPHIL,[1],0%
same,ERYTHROCYTE COUNT,[1],5.76 x10E6/uL
same,HEMATOCRIT,[1],36.57%
same,HEMOGLOBIN,[1],14.22 G/DL
same,LEUKOCYTE COUNT,[1],13.4 x10E3/uL
same,LYMPHOCYTE,[1],91.67%
same,MEAN CORPUSCULAR HEMOGLOBIN,[1],24.67 pg
same,MEAN CORPUSCULAR HEMOGLOBIN CONCENTRATION,[1],38.85 G/DL
same,MEAN CORPUSCULAR VOLUME,[1],63.52 fL
same,MONOCYTE,[1],1.17%
same,NEUTROPHIL,[1],7.17%
same,NUCLEATED RED BLOOD CELLS,[1],0.33 /100WBC
same,PLATELET COUNT,[1],1250.83 x10E3/uL
same,ALANINE AMINOTRANSFERASE,[1],49.17 u/L
same,ALBUMIN,[1],4.33 G/DL
same,ALKALINE PHOSPHATASE,[1],378.5 u/L
same,ASPARTATE AMINOTRANSFERASE,[1],82.17 u/L
same,BLOOD UREA NITROGEN,[1],15 mg/dL
same,CARBON DIOXIDE,[1],34.33 mmol/L
same,CHLORIDE,[1],99.17 MEQ/L
same,CHOLESTEROL,[1],71.17 mg/dL
same,CREATINE PHOSPHOKINASE,[1],258.67 u/L
same,CREATININE,[1],0.18 mg/dL
same,GLUCOSE,[1],142.67 mg/dL
same,LACTATE DEHYDROGENASE,[1],154.33 u/L
same,LIPASE,[1],9 u/L
same,PHOSPHORUS,[1],11.67 mg/dL
same,POTASSIUM,[1],7.13 MEQ/L
same,SODIUM,[1],142.22 MEQ/L
same,TOTAL BILIRUBIN,[1],0.18 mg/dL
same,TOTAL PROTEIN,[1],5.77 G/DL
same,URIC ACID,[1],1.55 mg/dL
same,ABSOLUTE BASOPHIL,[2],0 CELLS/uL
same,ABSOLUTE EOSINOPHIL,[2],23.33 CELLS/uL
same,ABSOLUTE LYMPHOCYTE,[2],14943.67 CELLS/uL
same,ABSOLUTE MONOCYTE,[2],32 CELLS/uL
same,ABSOLUTE SEGMENTED NEUTROPHIL,[2],1084.33 CELLS/uL
same,BASOPHIL,[2],0%
same,EOSINOPHIL,[2],0.17%
same,ERYTHROCYTE COUNT,[2],5.71 x10E6/uL
same,HEMATOCRIT,[2],35.28%
same,HEMOGLOBIN,[2],14.27 G/DL
same,LEUKOCYTE COUNT,[2],16.08 x10E3/uL
same,LYMPHOCYTE,[2],93%
same,MEAN CORPUSCULAR HEMOGLOBIN,[2],25.02 pg
same,MEAN CORPUSCULAR HEMOGLOBIN CONCENTRATION,[2],40.43 G/DL
same,MEAN CORPUSCULAR VOLUME,[2],61.82 fL
same,MONOCYTE,[2],0.17%
same,NEUTROPHIL,[2],6.67%
same,NUCLEATED RED BLOOD CELLS,[2],0.33 /100WBC
same,PLATELET COUNT,[2],1274 x10E3/uL
same,ALANINE AMINOTRANSFERASE,[2],54.17 u/L
same,ALBUMIN,[2],4.22 G/DL
same,ALKALINE PHOSPHATASE,[2],373.17 u/L
same,ASPARTATE AMINOTRANSFERASE,[2],81.83 u/L
same,BLOOD UREA NITROGEN,[2],16.67 mg/dL
same,CARBON DIOXIDE,[2],30.33 mmol/L
same,CHLORIDE,[2],99 MEQ/L
same,CHOLESTEROL,[2],71 mg/dL
same,CREATINE PHOSPHOKINASE,[2],273.5 u/L
same,CREATININE,[2],0.22 mg/dL
same,GLUCOSE,[2],141.83 mg/dL
same,LACTATE DEHYDROGENASE,[2],153.67 u/L
same,LIPASE,[2],10.33 u/L
same,PHOSPHORUS,[2],11.38 mg/dL
same,POTASSIUM,[2],7.08 MEQ/L
same,SODIUM,[2],142.75 MEQ/L
same,TOTAL BILIRUBIN,[2],0.18 mg/dL
same,TOTAL PROTEIN,[2],6.1 G/DL
same,URIC ACID,[2],1.67 mg/dL
same,ABSOLUTE BASOPHIL,[3],0 CELLS/uL
same,ABSOLUTE EOSINOPHIL,[3],0 CELLS/uL
same,ABSOLUTE LYMPHOCYTE,[3],12442 CELLS/uL
same,ABSOLUTE MONOCYTE,[3],223 CELLS/uL
same,ABSOLUTE SEGMENTED NEUTROPHIL,[3],868.33 CELLS/uL
same,BASOPHIL,[3],0%
same,EOSINOPHIL,[3],0%
same,ERYTHROCYTE COUNT,[3],6.64 x10E6/uL
same,HEMATOCRIT,[3],42%
same,HEMOGLOBIN,[3],16.13 G/DL
same,LEUKOCYTE COUNT,[3],13.53 x10E3/uL
same,LYMPHOCYTE,[3],92.33%
same,MEAN CORPUSCULAR HEMOGLOBIN,[3],24.27 pg
same,MEAN CORPUSCULAR HEMOGLOBIN CONCENTRATION,[3],38.4 G/DL
same,MEAN CORPUSCULAR VOLUME,[3],63.23 fL
same,MONOCYTE,[3],1.67%
same,NEUTROPHIL,[3],6%
same,NUCLEATED RED BLOOD CELLS,[3],0 /100WBC
same,PLATELET COUNT,[3],1347.33 x10E3/uL
same,ALANINE AMINOTRANSFERASE,[3],35.67 u/L
same,ALBUMIN,[3],3.93 G/DL
same,ALKALINE PHOSPHATASE,[3],354 u/L
same,ASPARTATE AMINOTRANSFERASE,[3],84.33 u/L
same,BLOOD UREA NITROGEN,[3],20 mg/dL
same,CARBON DIOXIDE,[3],34.67 mmol/L
same,CHLORIDE,[3],101.67 MEQ/L
same,CHOLESTEROL,[3],49 mg/dL
same,CREATINE PHOSPHOKINASE,[3],285.33 u/L
same,CREATININE,[3],0.3 mg/dL
same,GLUCOSE,[3],211 mg/dL
same,LACTATE DEHYDROGENASE,[3],230 u/L
same,LIPASE,[3],8.33 u/L
same,PHOSPHORUS,[3],11.13 mg/dL
same,POTASSIUM,[3],6.26 MEQ/L
same,SODIUM,[3],146.5 MEQ/L
same,TOTAL BILIRUBIN,[3],0.23 mg/dL
same,TOTAL PROTEIN,[3],5.2 G/DL
same,URIC ACID,[3],1.83 mg/dL
